ChEMBL document CHEMBL1133884, “Microwave-assisted [6+4]-cycloaddition of fulvenes and alpha-pyrones to azulene-indoles: facile syntheses of novel antineoplastic agents” (Bioorg Med Chem Lett, 2001)

Assays:
A498 = test: In vitro inhibitory concentration against renal cancer cell line A498; type: functional, cell-based; conditions: Homo sapiens
[1] = Average inhibitory concentration against 60 human cell lines was reported; type: functional
CAKI-1 = test: In vitro inhibitory concentration against renal cancer cell line […]; type: functional, cell-based; conditions: Homo sapiens
U-251 = test: In vitro inhibitory concentration against CNS cancer cell line U251; type: functional, cell-based; conditions: Homo sapiens
UO-31 = test: In vitro inhibitory concentration against renal cancer cell line UO-31; type: functional, cell-based; conditions: Homo sapiens
IGROV-1 = test: In vitro inhibitory concentration against ovarian cancer cell line IGROV1; type: functional, cell-based; conditions: Homo sapiens
K562 = test: In vitro inhibitory concentration against leukemia cell line K-562; type: functional, cell-based; conditions: Homo sapiens
NCI-H226 = test: In vitro inhibitory concentration against non small cell lung NCI-H226 cell line; type: functional, cell-based; conditions: Homo sapiens
SR = test: In vitro inhibitory concentration against leukemia cell line SR; type: functional, cell-based; conditions: Homo sapiens
EKVX = test: In vitro inhibitory concentration against non small cell lung EKVX cell line; type: functional, cell-based; conditions: Homo sapiens
Hs-578T = test: In vitro inhibitory concentration against breast cancer cell line Hs 578.T; type: functional, cell-based; conditions: Homo sapiens
NCI-H322M = test: In vitro inhibitory concentration against non small cell lung NCI-H322M cell line; type: functional, cell-based; conditions: Homo sapiens
HOP-92 = test: In vitro inhibitory concentration against non small cell lung HOP-92 cell line; type: functional, cell-based; conditions: Homo sapiens
T47D = test: In vitro inhibitory concentration against breast cancer cell line T-47D; type: functional, cell-based; conditions: Homo sapiens
UACC-257 = test: In vitro inhibitory concentration against melanoma cell line UACC-257; type: functional, cell-based; conditions: Homo sapiens
PC-3 = test: In vitro inhibitory concentration against prostate cancer cell line PC-3; type: functional, cell-based; conditions: Homo sapiens

Row | Structure (SMILES) | IC50 (A498) [nM] | IC50 [1] [nM] | IC50 (CAKI-1) [nM] | IC50 (K562) [nM] | IC50 (NCI-H226) [nM] | IC50 (EKVX) [nM] | IC50 (NCI-H322M) [nM] | IC50 (HOP-92) [nM] | further results
1 | Cc1c2cccc-2ccc2c1[nH]c1ccccc12 | 11700 | 2400 | 6600 |  |  |  |  |  | IC50 (U-251): 1480 nM; IC50 (UO-31): 1620 nM
2 | CC(=O)Oc1ccc2[nH]c3c(C)c4cccc-4ccc3c2c1 |  | 2190 |  | 3800 | 1380 |  |  |  | IC50 (IGROV-1): 1580 nM; IC50 (SR): 4570 nM
3 | Cc1c2cccc-2c(OCCO)cc2c1[nH]c1ccccc12 | 13800 | 2510 |  |  |  | 1000 | 17000 |  | IC50 (Hs-578T): 930 nM
4 | CC(=O)OCCOc1cc2c([nH]c3ccccc32)c(C)c2cccc1-2 |  | 2750 |  | 510 | 11200 |  | 14500 | 1380 | 
5 | Cc1c2cccc-2ccc2c1[nH]c1ccc(Br)cc12 | 21900 | 5370 |  |  |  | 1780 |  |  | IC50 (T47D): 1700 nM; IC50 (UACC-257): 24000 nM
6 | Cc1c2cccc-2c(N(C)C)cc2c1[nH]c1ccccc12 | 20900 | 3980 | 17400 |  |  |  |  | 560 | IC50 (PC-3): 1410 nM
